According to patent publication US20070099217A1, “Method for stress evaluation” (priority 2005, published 2007):

Columns and labels:
Per1 gene = assay: expression of clock genes in liver of mouse given corticosterone (quantitative real time RT-PCR); type: in vivo
Procedure: This example is intended to investigate the amount of expression of Per1 in a mouse which was given corticosterone.
A mouse was given a prescribed amount of corticosterone, and one hour later, it had its liver extracted. The collected liver was homogenized for quantitative real time RT-PCR in the same way as in Example 2, and the amount of expression of clock genes was determined.
The abscissa represents the dosage (mg/kg) of corticosterone per 1 kg of the mouse's weight. “PBS” denotes the control which was given a phosphate buffer solution in place of corticosterone. “fold induction” on the ordinate represents the amount of expression of Per1 gene (in terms of a relative value, with the value for PBS being 1).
The abscissa represents each clock gene. “fold induction” on the ordinate represents the amount of expression of each clock gene in terms of a relative value, with the value for PBS being 1.

[1] = target: glucocorticoid receptor (GR) joining to GRE resembling sequence of Per1 gene (Mus musculus, UniProt P06537); details: NIH3T3 cells, 1 hr after treatment with dexamethazone, anti-GR antibody
glucocorticoid receptor (GR) joining to GRE resembling sequence of Per1 gene, sequence (P06537 whole entry): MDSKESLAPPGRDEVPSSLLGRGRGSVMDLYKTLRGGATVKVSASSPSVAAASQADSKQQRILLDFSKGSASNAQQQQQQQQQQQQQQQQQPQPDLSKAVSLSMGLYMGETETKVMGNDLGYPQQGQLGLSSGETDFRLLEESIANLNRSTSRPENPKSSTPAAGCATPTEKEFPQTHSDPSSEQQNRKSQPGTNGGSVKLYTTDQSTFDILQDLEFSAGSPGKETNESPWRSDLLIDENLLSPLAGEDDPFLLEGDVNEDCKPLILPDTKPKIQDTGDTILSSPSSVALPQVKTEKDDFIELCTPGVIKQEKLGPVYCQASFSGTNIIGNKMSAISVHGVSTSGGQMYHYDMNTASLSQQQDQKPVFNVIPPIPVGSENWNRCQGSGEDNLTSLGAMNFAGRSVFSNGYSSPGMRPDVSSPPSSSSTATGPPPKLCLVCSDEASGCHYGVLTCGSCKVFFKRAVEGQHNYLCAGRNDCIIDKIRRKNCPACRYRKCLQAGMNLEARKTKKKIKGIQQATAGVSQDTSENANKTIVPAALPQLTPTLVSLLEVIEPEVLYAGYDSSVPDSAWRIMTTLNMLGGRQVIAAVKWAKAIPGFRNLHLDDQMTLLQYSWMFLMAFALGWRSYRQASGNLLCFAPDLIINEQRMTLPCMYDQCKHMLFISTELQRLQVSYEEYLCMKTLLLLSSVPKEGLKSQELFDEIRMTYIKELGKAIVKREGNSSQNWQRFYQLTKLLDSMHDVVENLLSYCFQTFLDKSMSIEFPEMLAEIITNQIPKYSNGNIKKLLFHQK
Procedure: First, NIH3T3 cells were treated with dexamethazone to induce the expression of mPer1 gene. The cells were given formaldehyde to fix the binding of protein and chromatin DNA. The chromatin DNA was fragmented by sonication and the resulting fragments underwent immunoprecipitation with anti-GR antibody. The resulting precipitates (as a composite of anti-GR antibody, GR, and chromatin DNA joining to GR) were recovered. The recovered precipitates were heated to remove the DNA-protein crosslinking. The desired sequence was amplified by PCR and the PCR product was identified by electrophoresis.
In other words, the primer was so designed as to specifically amplify the region near the two GRE resembling sequences.
In FIG. 5B, “IP: α-GR” indicates the desired sequence detected by semi-quantitative RT-PCR after immunoprecipitation by means of anti-GR antibody. “IP: αa-normal rabbit IgG” indicates the sequence (control) detected from immunoprecipitation by means of rabbit IgG. In addition, “input” indicates the desired sequence (control) detected by semi-quantitative RT-PCR without immunoprecipitation. “ChIP primer” in the lowermost row indicates the sequence of the primer used for semi-quantitative RT-PCR or the desired sequence which has been amplified. […]

[2] = tested on: promoter region of Per1 gene; assay: luciferase assay of Per1 promoter constructs in NIH3T3 cells with dexamethazone; type: cell-based; details: dexamethazone 0.1 μM, 36 hours after transfection
Procedure: The second step was luciferase assay to investigate what part of the promoter region of Per1 is associated with stress response.
Luciferase is an enzyme protein that catalyzes bioluminescence. It can be used to estimate the level at which the expression of a specific gene is induced in the following manner. First, a recombinant gene is prepared in which the promoter region of a specific gene is joined to a gene that codes luciferase. Second, the recombinant gene is incorporated into cultured cells. Third, the gene is allowed to express so that the luciferase is allowed to express. Fourth, the intensity of bioluminescence due to luciferase is determined to obtain the level at which luciferase expresses.
An experiment was carried out based on the foregoing principle. It involves preparation of several kinds of DNA differing in the length of the promoter region of Per1 and determination of the expression level of Per1 in the presence of dexamethazone. […] Incidentally, dexamethazone is synthetic glucocorticoid. It is known that the amount of glucocorticoid in blood increases when a living organism experiences stress.
The procedure of the experiment is outlined below. • (1) The first step is to prepare DNAs (P1F, P1K, and P1S), the first one having the entire length of the promoter region of Per1 gene and the second and third ones having the partial length of the promoter region of Per1 gene, with the upstream side cut off. […] The subcultured cells are collected and dissolved 36 hours after transfection. • (4) The fourth step is to prepare a solution from the dissolved cells and measurement of the luminescence intensity by means of Dual Luciferase Assay System (from Promega). […]
FIG. 4C is a graph showing the results of luciferase assay. The abscissa (Relative Luciferase Activity) represents the intensity of luminescence in terms of relative value (%) compared with the intensity of luminescence assigned as 100 of the cultured cells incorporated with the entire length of the promoter region of Per1 gene.
“P1F” denotes the intensity of luminescence from cultured cells incorporated with the entire length of the promoter region of Per1 gene. “P1K” denotes the intensity of luminescence from cultured cells incorporated with the partial length of 3806 bases upstream from the transcription starting region of Per1 gene. “P1S” denotes the intensity of luminescence from cultured cells incorporated with the partial length of 2369 bases upstream from the transcription starting region of Per1 gene. “Vector” denotes the intensity of luminescence from cultured cells (control) incorporated with a blank vector. […] “Dex” and “EtOH” respectively denote the intensity of luminescence from a sample containing dexamethazone and a sample (control) containing ethanol. […]

detection of dGRE and pGRE sequences by semi-quantitative RT-PCR after immunoprecipitation ([1]; FIG. 5B) | amount of dGRE and pGRE DNA amplified (%input) by quantitative real time RT-PCR after immunoprecipitation ([1]; FIG. 5C) | Compound | amount of expression of each clock gene (fold induction, PBS being 1) (Per1 gene; one hour after corticosterone 10 mg/kg, FIG. 7B) | amount of expression of Per1 gene (fold induction, PBS being 1) versus dosage (Per1 gene; one hour after corticosterone, dosage in mg/kg, FIG. 7A) | intensity of luminescence, P1FpM ([2]; P1F with GRE resembling sequence mutated in its downstream, FIG. 4D) | intensity of luminescence, P1FdM ([2]; P1F with GRE resembling sequence mutated in its upstream, FIG. 4D) | Relative Luciferase Activity (intensity of luminescence), P1K ([2]; P1K promoter (3806 bases upstream, two GRE resembling sequences), vs EtOH, FIG. 4C) | Relative Luciferase Activity (intensity of luminescence), P1S ([2]; P1S promoter (2369 bases upstream, one GRE resembling sequence), vs EtOH, FIG. 4C)
 |  | C[C@]12C[C@H](O)[C@H]3[C@@H](CCC4=CC(=O)CC[C@@]43C)[C@@H]1CC[C@@H]2C(=O)CO [corticosterone] | increases the amount of expression of only Per1 gene among clock genes | increases as the dosage of corticosterone increases |  |  |  | 
the desired band was detected | greatly amplifies | C[C@@H]1C[C@H]2[C@@H]3CCC4=CC(=O)C=C[C@]4(C)[C@@]3(F)[C@@H](O)C[C@]2(C)[C@@]1(O)C(=O)CO [dexamethazone] |  |  | high intensity of luminescence | a little lower intensity of luminescence | high intensity of luminance | certain intensity of luminance
